# Measurements from PMC8518114, “Safety, tolerability and pharmacokinetics of emodepside, a potential novel treatment for onchocerciasis (river blindness), in healthy male subjects” (British Journal of Clinical Pharmacology, 2021).
# System: healthy male subjects
# Experiment: Safety: treatment-emergent adverse events, SAD study
# Type: in vivo, human
# Description: Safety was assessed by monitoring adverse events (AEs) throughout the studies that were coded using the standard Medical Dictionary for Regulatory Activities (MedDRA) dictionary (versions 19.0 [SAD part 1], 20.0 [SAD part 2] and 21.1 [MAD]). Other safety monitoring included 12‐lead electrocardiography recordings, measurement of vital signs (systolic and diastolic blood pressure and heart rate), physical and neurological (Hamilton depression rating scale[17] and Beck depression inventory‐II fastscreen[18] [SAD only], mental status examination, cranial nerves assessment and motor system examination, sensation to light touch, coordination/cerebellar function assessment, Romberg's test, gait test, daytime sleepiness assessment [SAD and MAD studies]) examinations, haematology, biochemistry and urinalysis. To minimise risks in the SAD and MAD studies, subjects were dosed sequentially using sentinels in each cohort (1 IP, 1 placebo) as per European Medicines Agency guidelines.[19] If the previous dose was well tolerated, with no safety concerns, dose escalation was decided by the Safety Review Group after reviewing safety and PK data from all available cohorts. Moreover, treatment with the highest dose in the SAD study was repeated (cohort 10) for regular ophthalmological evaluations (assessments available as supplementary information) to better characterise visual AEs observed in the SAD study. Regular ophthalmological assessments were also performed in the MAD study.
# [1] = SAD Part 2, 10 mg LSF (fed) n = 6
# [2] = SAD Part 2, 40 mg LSF (fasting) n = 6
structure (smiles),measurement,setting,value
CC(C)C[C@H]1C(=O)O[C@H](Cc2ccc(N3CCOCC3)cc2)C(=O)N(C)[C@@H](CC(C)C)C(=O)O[C@H](C)C(=O)N(C)[C@@H](CC(C)C)C(=O)O[C@H](Cc2ccc(N3CCOCC3)cc2)C(=O)N(C)[C@@H](CC(C)C)C(=O)O[C@H](C)C(=O)N1C [emodepside],Any TEAE,"SAD Part 1, 0.1 mg LSF n = 1",1 (100) n (%)
same,TEAE: Eye disorders,"SAD Part 1, 0.1 mg LSF n = 1",0 n (%)
same,TEAE: Gastrointestinal disorders,"SAD Part 1, 0.1 mg LSF n = 1",0 n (%)
same,TEAE: General disorders and administration site disorders,"SAD Part 1, 0.1 mg LSF n = 1",0 n (%)
same,TEAE: Infections and infestations,"SAD Part 1, 0.1 mg LSF n = 1",1 (100) n (%)
same,"TEAE: Injury, poisoning and procedural complications","SAD Part 1, 0.1 mg LSF n = 1",0 n (%)
same,TEAE: Musculoskeletal and connective tissue disorders,"SAD Part 1, 0.1 mg LSF n = 1",0 n (%)
same,TEAE: Nervous system disorders,"SAD Part 1, 0.1 mg LSF n = 1",0 n (%)
same,TEAE: Psychiatric disorders,"SAD Part 1, 0.1 mg LSF n = 1",0 n (%)
same,"TEAE: Respiratory, thoracic and mediastinal disorders","SAD Part 1, 0.1 mg LSF n = 1",0 n (%)
same,Any TEAE,"SAD Part 1, 1 mg LSF n = 5",3 (60.0) n (%)
same,TEAE: Eye disorders,"SAD Part 1, 1 mg LSF n = 5",0 n (%)
same,TEAE: Gastrointestinal disorders,"SAD Part 1, 1 mg LSF n = 5",0 n (%)
same,TEAE: General disorders and administration site disorders,"SAD Part 1, 1 mg LSF n = 5",0 n (%)
same,TEAE: Infections and infestations,"SAD Part 1, 1 mg LSF n = 5",0 n (%)
same,"TEAE: Injury, poisoning and procedural complications","SAD Part 1, 1 mg LSF n = 5",0 n (%)
same,TEAE: Musculoskeletal and connective tissue disorders,"SAD Part 1, 1 mg LSF n = 5",1 (20.0) n (%)
same,TEAE: Nervous system disorders,"SAD Part 1, 1 mg LSF n = 5",2 (40.0) n (%)
same,TEAE: Psychiatric disorders,"SAD Part 1, 1 mg LSF n = 5",0 n (%)
same,"TEAE: Respiratory, thoracic and mediastinal disorders","SAD Part 1, 1 mg LSF n = 5",0 n (%)
same,Any TEAE,"SAD Part 1, 2.5 mg LSF n = 6",0 n (%)
same,TEAE: Eye disorders,"SAD Part 1, 2.5 mg LSF n = 6",0 n (%)
same,TEAE: Gastrointestinal disorders,"SAD Part 1, 2.5 mg LSF n = 6",0 n (%)
same,TEAE: General disorders and administration site disorders,"SAD Part 1, 2.5 mg LSF n = 6",0 n (%)
same,TEAE: Infections and infestations,"SAD Part 1, 2.5 mg LSF n = 6",0 n (%)
same,"TEAE: Injury, poisoning and procedural complications","SAD Part 1, 2.5 mg LSF n = 6",0 n (%)
same,TEAE: Musculoskeletal and connective tissue disorders,"SAD Part 1, 2.5 mg LSF n = 6",0 n (%)
same,TEAE: Nervous system disorders,"SAD Part 1, 2.5 mg LSF n = 6",0 n (%)
same,TEAE: Psychiatric disorders,"SAD Part 1, 2.5 mg LSF n = 6",0 n (%)
same,"TEAE: Respiratory, thoracic and mediastinal disorders","SAD Part 1, 2.5 mg LSF n = 6",0 n (%)
same,Any TEAE,"SAD Part 1, 5 mg IRT n = 5",3 (60.0) n (%)
same,TEAE: Eye disorders,"SAD Part 1, 5 mg IRT n = 5",1 (20.0) n (%)
same,TEAE: Gastrointestinal disorders,"SAD Part 1, 5 mg IRT n = 5",0 n (%)
same,TEAE: General disorders and administration site disorders,"SAD Part 1, 5 mg IRT n = 5",0 n (%)
same,TEAE: Infections and infestations,"SAD Part 1, 5 mg IRT n = 5",0 n (%)
same,"TEAE: Injury, poisoning and procedural complications","SAD Part 1, 5 mg IRT n = 5",0 n (%)
same,TEAE: Musculoskeletal and connective tissue disorders,"SAD Part 1, 5 mg IRT n = 5",1 (20.0) n (%)
same,TEAE: Nervous system disorders,"SAD Part 1, 5 mg IRT n = 5",1 (20.0) n (%)
same,TEAE: Psychiatric disorders,"SAD Part 1, 5 mg IRT n = 5",1 (20.0) n (%)
same,"TEAE: Respiratory, thoracic and mediastinal disorders","SAD Part 1, 5 mg IRT n = 5",0 n (%)
same,Any TEAE,"SAD Part 1, 5 mg LSF n = 6",3 (50.0) n (%)
same,TEAE: Eye disorders,"SAD Part 1, 5 mg LSF n = 6",0 n (%)
same,TEAE: Gastrointestinal disorders,"SAD Part 1, 5 mg LSF n = 6",1 (16.7) n (%)
same,TEAE: General disorders and administration site disorders,"SAD Part 1, 5 mg LSF n = 6",2 (33.3) n (%)
same,TEAE: Infections and infestations,"SAD Part 1, 5 mg LSF n = 6",1 (16.7) n (%)
same,"TEAE: Injury, poisoning and procedural complications","SAD Part 1, 5 mg LSF n = 6",0 n (%)
same,TEAE: Musculoskeletal and connective tissue disorders,"SAD Part 1, 5 mg LSF n = 6",1 (16.7) n (%)
same,TEAE: Nervous system disorders,"SAD Part 1, 5 mg LSF n = 6",1 (16.7) n (%)
same,TEAE: Psychiatric disorders,"SAD Part 1, 5 mg LSF n = 6",0 n (%)
same,"TEAE: Respiratory, thoracic and mediastinal disorders","SAD Part 1, 5 mg LSF n = 6",0 n (%)
same,Any TEAE,"SAD Part 1, 10 mg LSF n = 6",5 (83.3) n (%)
same,TEAE: Eye disorders,"SAD Part 1, 10 mg LSF n = 6",2 (33.3) n (%)
same,TEAE: Gastrointestinal disorders,"SAD Part 1, 10 mg LSF n = 6",0 n (%)
same,TEAE: General disorders and administration site disorders,"SAD Part 1, 10 mg LSF n = 6",0 n (%)
same,TEAE: Infections and infestations,"SAD Part 1, 10 mg LSF n = 6",1 (16.7) n (%)
same,"TEAE: Injury, poisoning and procedural complications","SAD Part 1, 10 mg LSF n = 6",0 n (%)
same,TEAE: Musculoskeletal and connective tissue disorders,"SAD Part 1, 10 mg LSF n = 6",0 n (%)
same,TEAE: Nervous system disorders,"SAD Part 1, 10 mg LSF n = 6",1 (16.7) n (%)
same,TEAE: Psychiatric disorders,"SAD Part 1, 10 mg LSF n = 6",0 n (%)
same,"TEAE: Respiratory, thoracic and mediastinal disorders","SAD Part 1, 10 mg LSF n = 6",1 (16.7) n (%)
same,Any TEAE,"SAD Part 1, 20 mg IRT n = 6",2 (33.3) n (%)
same,TEAE: Eye disorders,"SAD Part 1, 20 mg IRT n = 6",0 n (%)
same,TEAE: Gastrointestinal disorders,"SAD Part 1, 20 mg IRT n = 6",1 (16.7) n (%)
same,TEAE: General disorders and administration site disorders,"SAD Part 1, 20 mg IRT n = 6",0 n (%)
same,TEAE: Infections and infestations,"SAD Part 1, 20 mg IRT n = 6",0 n (%)
same,"TEAE: Injury, poisoning and procedural complications","SAD Part 1, 20 mg IRT n = 6",0 n (%)
same,TEAE: Musculoskeletal and connective tissue disorders,"SAD Part 1, 20 mg IRT n = 6",1 (16.7) n (%)
same,TEAE: Nervous system disorders,"SAD Part 1, 20 mg IRT n = 6",1 (16.7) n (%)
same,TEAE: Psychiatric disorders,"SAD Part 1, 20 mg IRT n = 6",0 n (%)
same,"TEAE: Respiratory, thoracic and mediastinal disorders","SAD Part 1, 20 mg IRT n = 6",1 (16.7) n (%)
same,Any TEAE,"SAD Part 1, 20 mg LSF n = 6",3 (50.0) n (%)
same,TEAE: Eye disorders,"SAD Part 1, 20 mg LSF n = 6",1 (16.7) n (%)
same,TEAE: Gastrointestinal disorders,"SAD Part 1, 20 mg LSF n = 6",0 n (%)
same,TEAE: General disorders and administration site disorders,"SAD Part 1, 20 mg LSF n = 6",0 n (%)
same,TEAE: Infections and infestations,"SAD Part 1, 20 mg LSF n = 6",1 (16.7) n (%)
same,"TEAE: Injury, poisoning and procedural complications","SAD Part 1, 20 mg LSF n = 6",1 (16.7) n (%)
same,TEAE: Musculoskeletal and connective tissue disorders,"SAD Part 1, 20 mg LSF n = 6",0 n (%)
same,TEAE: Nervous system disorders,"SAD Part 1, 20 mg LSF n = 6",1 (16.7) n (%)
same,TEAE: Psychiatric disorders,"SAD Part 1, 20 mg LSF n = 6",0 n (%)
same,"TEAE: Respiratory, thoracic and mediastinal disorders","SAD Part 1, 20 mg LSF n = 6",1 (16.7) n (%)
same,Any TEAE,"SAD Part 1, 40 mg LSF n = 6",5 (83.3) n (%)
same,TEAE: Eye disorders,"SAD Part 1, 40 mg LSF n = 6",5 (83.3) n (%)
same,TEAE: Gastrointestinal disorders,"SAD Part 1, 40 mg LSF n = 6",0 n (%)
same,TEAE: General disorders and administration site disorders,"SAD Part 1, 40 mg LSF n = 6",0 n (%)
same,TEAE: Infections and infestations,"SAD Part 1, 40 mg LSF n = 6",1 (16.7) n (%)
same,"TEAE: Injury, poisoning and procedural complications","SAD Part 1, 40 mg LSF n = 6",0 n (%)
same,TEAE: Musculoskeletal and connective tissue disorders,"SAD Part 1, 40 mg LSF n = 6",1 (16.7) n (%)
same,TEAE: Nervous system disorders,"SAD Part 1, 40 mg LSF n = 6",3 (50.0) n (%)
same,TEAE: Psychiatric disorders,"SAD Part 1, 40 mg LSF n = 6",0 n (%)
same,"TEAE: Respiratory, thoracic and mediastinal disorders","SAD Part 1, 40 mg LSF n = 6",0 n (%)
same,Any TEAE,[1],3 (50.0) n (%)
same,TEAE: Eye disorders,[1],0 n (%)
same,TEAE: Gastrointestinal disorders,[1],0 n (%)
same,TEAE: General disorders and administration site disorders,[1],0 n (%)
same,TEAE: Infections and infestations,[1],0 n (%)
same,"TEAE: Injury, poisoning and procedural complications",[1],0 n (%)
same,TEAE: Musculoskeletal and connective tissue disorders,[1],0 n (%)
same,TEAE: Nervous system disorders,[1],2 (33.3) n (%)
same,TEAE: Psychiatric disorders,[1],0 n (%)
same,"TEAE: Respiratory, thoracic and mediastinal disorders",[1],1 (16.7) n (%)
same,Any TEAE,[2],5 (83.3) n (%)
same,TEAE: Eye disorders,[2],5 (83.3) n (%)
same,TEAE: Gastrointestinal disorders,[2],3 (50.0) n (%)
same,TEAE: General disorders and administration site disorders,[2],3 (50.0) n (%)
same,TEAE: Infections and infestations,[2],0 n (%)
same,"TEAE: Injury, poisoning and procedural complications",[2],0 n (%)
same,TEAE: Musculoskeletal and connective tissue disorders,[2],1 (16.7) n (%)
same,TEAE: Nervous system disorders,[2],4 (66.7) n (%)
same,TEAE: Psychiatric disorders,[2],1 (16.7) n (%)
same,"TEAE: Respiratory, thoracic and mediastinal disorders",[2],1 (16.7) n (%)
same,Drug-related visual disorder TEAEs,"SAD, 10 mg LSF in the fasting state",2 subjects
same,Drug-related visual disorder TEAEs,"SAD, 40 mg LSF in the fasting state",5 subjects
same,Time to spontaneous resolution of drug-related visual disorder TEAEs,"SAD, all mild",≤ 24 h
same,Onset of drug-related visual disorder TEAEs post-dose,in vivo,20 to 240 min
same,"Onset of drug-related visual disorder TEAEs, most often",in vivo,1 to 2.5 h
